This note sets out measurements from paper PMC3909494 (Molecular cell, 2013).

The target of this assay is T1, TmMre11 (Thermotoga maritima Mre11 (1–324)) (Thermotoga maritima, UniProt Q9X1X0).
T1 sequence (Q9X1X0 1-324): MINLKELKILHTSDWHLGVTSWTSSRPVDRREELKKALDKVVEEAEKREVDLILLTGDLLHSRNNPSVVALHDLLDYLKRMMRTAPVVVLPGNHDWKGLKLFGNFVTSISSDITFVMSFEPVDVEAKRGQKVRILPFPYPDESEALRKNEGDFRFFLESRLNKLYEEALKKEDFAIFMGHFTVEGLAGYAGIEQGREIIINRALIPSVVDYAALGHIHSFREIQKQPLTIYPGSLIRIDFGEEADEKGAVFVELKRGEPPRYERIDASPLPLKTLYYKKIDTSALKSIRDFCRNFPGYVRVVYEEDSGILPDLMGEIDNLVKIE
Description: exonuclease assay. Particulars: conditions only in supplement. It counts as biochemical.

Turning to `N=C1NC(=O)/C(=C/c2ccc(O)cc2)S1` [mirin], the “inhibition of exonuclease activity” value is on record as “Nuclease assays using TmMre11”.
